Assay results taken from patent publication US20130131075A1, “NEW COMPOUNDS” (Boehringer Ingelheim International GmbH, priority 2009, published 2013).

Target: T1, cynomolgus BK1-receptor (Macaca fascicularis, UniProt Q3BCU0)
T1 construct: expressed in transfected cells; host or cells: CHO cells (homogenate)
T1 sequence (Q3BCU0 1-352): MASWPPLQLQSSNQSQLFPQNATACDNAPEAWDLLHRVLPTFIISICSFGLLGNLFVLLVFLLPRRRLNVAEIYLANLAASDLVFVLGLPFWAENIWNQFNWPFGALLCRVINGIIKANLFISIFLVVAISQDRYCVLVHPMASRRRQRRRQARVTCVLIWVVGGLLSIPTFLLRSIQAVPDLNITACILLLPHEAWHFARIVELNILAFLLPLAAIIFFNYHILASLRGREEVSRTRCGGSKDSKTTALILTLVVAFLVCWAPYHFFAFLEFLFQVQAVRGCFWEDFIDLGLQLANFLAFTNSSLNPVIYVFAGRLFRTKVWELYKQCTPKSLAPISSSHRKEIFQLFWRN
Experiment: cynoBK1-receptor binding assay
Settings: CHO cells expressing cynomolgus BK1-receptor, radioligand kallidine (DesArg10,Leu9); for inhibition at 10 µM: at 10 μgmol/L
Experimental: Description of the Method of Binding the cynoBK1-Receptor
CHO cells that express the cynomolgus BK1-receptor are cultivated in “HAM'S F-12 Medium”. The medium is removed from confluent cultures, the cells are washed with PBS buffer, scraped off or detached using Versene and isolated by centrifuging. Then the cells are homogenised in suspension, the homogenate is centrifuged and resuspended. After the protein content has been determined 200 μl of the homogenate (50 to 250 μg protein/assay) are incubated for 60-180 minutes at ambient temperature with 0.5 to 5.0 nM kallidine (DesArg10,Leu9), [3,4-Prolyl-3,43H(N)] and increasing concentrations of the test substance in a total volume of 250 μl. The incubation is stopped by rapid filtration through GF/B glass fibre filters that have been pre-treated with polyethyleneimine (0.3%). The radioactivity bound to the protein is measured with a TopCount NXT. The radioactivity bound in the presence of 1.0 μM kallidine (DesArg10) is defined as non-specific binding. The concentration binding curve may be analysed using computer-aided non-linear curve fitting to determine the corresponding Ki value for the test substance.
Test results of the cynoBK1-receptor binding assay: […]

Row | Ki | inhibition at 10 µM | Compound
1 | 0.049 µM | – | O=C(NC1(C(=O)NCc2ccc(Nc3ccc(F)cc3C(F)(F)F)cn2)CC1)c1cncc(Cl)c1 [(339)]
2 | 0.021 µM | – | CNc1ncc(C(=O)N[C@@]2(C(=O)NCc3ccc(Nc4ccc(F)cc4C(F)(F)F)cc3)CCOC2)cn1 [(289)]
3 | 0.01 µM | – | Cc1cc(Nc2ccc(Cl)cc2C(F)(F)F)cnc1CNC(=O)C1(NC(=O)c2cncc(N)c2)CC1 [(361)]
4 | 0.035 µM | 104% | CC(C#N)C(=O)NC1(C(=O)NCc2ccc(Nc3ccc(F)cc3C(F)(F)F)cn2)CC1 (centres unmarked) [(170)]
5 | 0.0073 µM | – | CCOc1ncc(C(=O)NC2(C(=O)NCc3ccc(Nc4ccc(Cl)cc4C(F)(F)F)cn3)CC2)cn1 [(390)]
6 | 0.01 µM | – | Cc1ncc(C(=O)N[C@@]2(C(=O)NCc3ncc(Nc4ccc(F)cc4C(F)(F)F)cc3C)CCOC2)cn1 [(387)]
7 | 0.0093 µM | – | Cc1cc(C(=O)NC2(C(=O)NCc3ccc(Nc4ccc(F)cc4C(F)(F)F)cn3)CC2)cnc1N [(391)]
8 | 0.0076 µM | 107% | COc1ncc(C(=O)NC2(C(=O)NCc3ccc(Nc4ccc(Cl)cc4C(F)(F)F)cn3)CC2)cn1 [(146)]
9 | – | 56% | O=C(NC1(C(=O)NCc2ccc(Nc3ccccc3C(F)(F)F)cn2)CCCCC1)c1cncnc1 [(191)]
10 | 0.069 µM | – | Cc1ccc(C(=O)NC2(C(=O)NCc3ccc(Nc4ccc(F)cc4C(F)(F)F)cn3)CC2)cn1 [(341)]
11 | 0.089 µM | – | COc1ncc(C(=O)N[C@@]2(C(=O)NCc3ccc(Nc4ccc(F)cc4C(F)(F)F)cn3)CCOC2)cn1 [(327)]
12 | 0.433 µM | – | O=C(NC1(C(=O)NCc2ccc(Nc3ccc(Cl)cc3C(F)(F)F)cn2)CC1)c1ccnc(F)c1 [(355)]
13 | 0.0055 µM | – | Cc1ncc(C(=O)N[C@@]2(C(=O)NCc3ncc(Nc4ccc(F)cc4C(F)(F)F)cc3F)CCOC2)cn1 [(267)]
14 | 0.021 µM | – | O=C(NC1(C(=O)NCc2ccc(Nc3ccc(F)cc3C(F)(F)F)cn2)CC1)c1cnc(C(F)(F)F)nc1 [(246)]
15 | 0.0016 µM | 106% | CC(NC(=O)C1(NC(=O)c2cncnc2)CC1)c1ccc(Nc2ccc(Br)cc2C(F)(F)F)cn1 (centres unmarked) [(180)]
16 | 0.04 µM | – | Cc1ccc(C(=O)NC2(C(=O)NCc3ccc(Nc4ccc(Br)cc4C(F)(F)F)cn3)CC2)cn1 [(315)]
17 | 0.027 µM | – | O=C(NC1(C(=O)NCc2ccc(Nc3ccc(Cl)cc3C(F)(F)F)cn2)CC1)c1cncc(C(F)(F)F)c1 [(354)]
18 | 0.019 µM | – | Nc1cncc(C(=O)N[C@@]2(C(=O)NCc3ncc(Nc4ccccc4C(F)(F)F)cc3F)CCOC2)c1 [(320)]
19 | 0.089 µM | – | COc1ncc(C(=O)N[C@@]2(C(=O)NCc3ccc(Nc4ccc(Cl)cc4C(F)(F)F)cc3)CCOC2)cn1 [(333)]
20 | – | 101% | O=C(NC1(C(=O)NCc2ncc(Nc3ccc(Cl)cc3C(F)(F)F)cc2F)CC1)c1cncnc1 [(165)]
21 | – | 91% | O=C(NC1(C(=O)NCc2ccc(Nc3ccc(F)cc3Cl)cn2)CC1)c1cncnc1 [(190)]
22 | 0.028 µM | – | CCCNc1ccc(C(=O)NC2(C(=O)NCc3ccc(Nc4ccc(Br)cc4C(F)(F)F)cn3)CC2)cn1 [(335)]
23 | 0.0061 µM | – | COc1ncc(C(=O)N[C@@]2(C(=O)NCc3ncc(Nc4ccc(F)cc4C(F)(F)F)cc3Cl)CCOC2)cn1 [(230)]
24 | 0.349 µM | – | CNc1cncc(C(=O)N[C@@]2(C(=O)NCc3ccc(Nc4ccc(F)cc4C(F)(F)F)cn3)CCOC2)c1 [(311)]
25 | 0.0055 µM | – | Cc1ncc(C(=O)N[C@@]2(C(=O)NCc3ccc(Nc4ccccc4C(F)(F)F)cc3F)CCOC2)cn1 [(279)]
26 | 0.013 µM | – | Nc1cncc(C(=O)N[C@@]2(C(=O)NCc3ccc(Nc4ccc(F)cc4C(F)(F)F)cc3)CCOC2)c1 [(214)]
27 | 0.012 µM | – | Nc1cncc(C(=O)NC2(C(=O)NCc3ccc(Nc4ccc(Cl)cc4C(F)(F)F)cn3)CC2)c1 [(217)]
28 | – | 97% | O=C(NC1(C(=O)NCc2ccc(Nc3ccc(Br)cc3C(F)(F)F)cn2)CC1)c1ccnc(O)c1 [(171)]
29 | 0.082 µM | – | Cc1ncc(C(=O)NC2(C(=O)NCc3ccc(Nc4ccc(F)cc4C(F)(F)F)cn3)CC2)s1 [(303)]
30 | 0.039 µM | – | CC(C)c1ncc(C(=O)N[C@@]2(C(=O)NCc3ccc(Nc4ccc(F)cc4C(F)(F)F)cc3)CCOC2)cn1 [(310)]

Second part, the compound before the results:

Row | Compound | Ki | inhibition at 10 µM
31 | N#Cc1cc(F)ccc1Nc1ccc(CNC(=O)C2(NC(=O)c3cncnc3)CC2)cc1 [(36)] | 0.021 µM | 113%
32 | N#C/C(=N\O)C(=O)N[C@@]1(C(=O)NCc2ccc(Nc3ccccc3C(F)(F)F)cc2)CCOC1 [(66)] | – | 81%
33 | Cc1ccc(C(=O)N[C@@]2(C(=O)NCc3ccc(Nc4ccccc4C(F)(F)F)cc3)CCOC2)cn1 [(58)] | – | 109%
34 | O=C(N[C@@]1(C(=O)NCc2ccc(Nc3ccccc3C(F)(F)F)cc2)CCOC1)c1cccc(O)n1 [(70)] | – | 107%
35 | O=C(NC1(C(=O)NCc2ccc(Nc3ccc(OCC(F)F)cc3C(F)(F)F)cc2)CC1)c1cncnc1 [(118)] | 0.064 µM | 109%
36 | Cc1ncncc1C(=O)N[C@@]1(C(=O)NCc2ccc(Nc3ccccc3C(F)(F)F)cc2)CCOC1 [(77)] | – | 96%
37 | Cc1nnc(C(=O)NC2(C(=O)NCc3ccc(Nc4ccccc4C(F)(F)F)cc3)CC2)o1 [(27)] | – | 104%
38 | Nc1cncc(C(=O)N[C@@]2(C(=O)NCc3ccc(Nc4ccccc4C(F)(F)F)cc3)CCOC2)c1 [(105)] | 0.02 µM | 113%
39 | Cc1ccccc1N(C)c1ccc(CNC(=O)C2(NC(=O)c3cncnc3)CC2)cc1 [(113)] | – | 7%
40 | O=C(NC1(C(=O)NCc2ccc(Nc3ccc(Br)cc3C(F)(F)F)cn2)CC1)c1cccc(O)n1 [(140)] | 0.014 µM | 106%
41 | O=C(N[C@@]1(C(=O)NCc2ccc(Nc3ccccc3C(F)(F)F)cc2)CCOC1)C1CCOCC1 [(65)] | – | 76%
42 | Cn1ccc(C(=O)N[C@@]2(C(=O)NCc3ccc(Nc4ccccc4C(F)(F)F)cc3)CCOC2)cc1=O [(84)] | 0.09 µM | 104%
43 | CC(NC(=O)C1(NC(=O)c2cncc(N)c2)CC1)c1ncc(Nc2c(F)cccc2C(F)(F)F)cc1F (centres unmarked) [(122)] | 0.0063 µM | 113%
44 | Cc1ncc(C(=O)N[C@@]2(C(=O)NCc3ccc(Nc4ccccc4C(F)(F)F)cc3)CCOC2)c(C)n1 [(80)] | – | 88%
45 | O=C(NC1(C(=O)NCc2ccc(Nc3ccccc3C(F)(F)F)cc2)CC1)c1cncnc1 [(4)] | – | 109%
46 | O=C(NC1(C(=O)NCc2ccc(Nc3ccc(F)cc3C(F)(F)F)cn2)CC1)c1cncnc1 [(41)] | 0.0026 µM | 108%
47 | COc1ccc(C(=O)N[C@@]2(C(=O)NCc3ccc(Nc4ccccc4C(F)(F)F)cc3)CCOC2)cc1 [(99)] | – | 96%
48 | CCOc1ccc(Nc2ccc(CNC(=O)C3(NC(=O)c4cncnc4)CC3)cc2)c(C(F)(F)F)c1 [(117)] | 0.0028 µM | 111%
49 | CN(C)CCC(=O)NC1(C(=O)NCc2ccc(Nc3ccccc3C(F)(F)F)cc2)CC1 [(8)] | – | 75%
50 | O=C(N[C@@]1(C(=O)NCc2ccc(Nc3ccccc3C(F)(F)F)cc2)CCOC1)c1cccc(O)c1 [(97)] | 0.132 µM | –
51 | CC(NC(=O)[C@]1(NC(=O)c2cncnc2)CCOC1)c1ccc(Nc2ccc(F)cc2C(F)(F)F)cn1 (some centres unmarked) [(47)] | 0.039 µM | 94%
52 | COc1ccc(N(C)c2ccc(CNC(=O)C3(NC(=O)c4cncnc4)CC3)cc2)cc1 [(112)] | – | 45%
53 | CN1CCC(C(=O)NC2(C(=O)NCc3ccc(Nc4ccccc4C(F)(F)F)cc3)CC2)CC1 [(22)] | – | 60%
